Results taken from patent US5493007A, “Platelet aggregation inhibitors having high specificity for GPIIBIIIA” (Genentech, Inc., priority 1994, dated 1996).
Where a SMILES comes first, the peptide text is derived from it. Bridges are numbered along the chain shown (N, C = ends). [ ]: non-standard residue; d: D form. Pen = CC(C)(S)[C@H](N)C(=O)O; Orn = NCCC[C@H](N)C(=O)O

Legend:
[1] = system: New Zealand White rabbits; experiment: Rabbit peripheral blood flow (PBF) by observation of ear vessels; type: in vivo
Method: Catheters are flushed and locked after every sample.
For the experiments summarized in Table 1, PBF was monitored by observation of the condition of the blood vessels in the rabbits' ears, prior to and during the infusion. Normal flow is defined as ears that appear pink to red, with no visible constriction of the major blood vessels. Decreased flow applies to ears that have constricted vessels resulting in cold, pallid ears for up to 40 minutes following the start of the inhibitor infusion.

[2] = system: platelet rich plasma (PRP); experiment: Ex vivo platelet aggregation, dog model; type: in vivo
Method: Beagle dogs were premedicated with atropine (3 mg subcutaneously) and anesthetized with intravenous sodium pentobarbital solution (65 mg/ml, to effect, induction and maintenance). The dogs were placed in dorsal recumbency on heating pads, intubated, and placed on oxygen-room air mixture (free breathing). A pulse oximeter was attached and heart rate and oxygen saturation monitored. An indwelling catheter was placed in one cephalic vein through which normal saline drip (for patency) and maintenance anesthetic doses were administered, and in one saphenous vein through which test or control compound was bolused or infused.
At each proscribed time point a 5 ml whole blood sample was withdrawn via jugular venipuncture for ex vivo platelet aggregation and complete blood cell count. Manual pressure was applied to the venipuncture site following blood withdrawal to minimize hematoma formation.
Approximately one ml of blood withdrawn at each timepoint was placed on EDTA (purple-top vacutainer) and used to measure the complete blood cell count on a Cell-Dyne 1500 automated hematology analyzer. 3.6 ml of blood withdrawn at each timepoint was placed on a 3.8% sodium citrate (1 part to 9 parts blood) and centrifuged at 12,000 rpm for 4 seconds in an Eppendorf microcentrifuge. The resultant platelet rich plasma (PRP) was pipetted off for use in ex vivo aggregation procedures.
Platelet aggregation was measured in a Payton dual-channel aggregometer. The equipment was calibrated with PRP assigned as 0% light transmission and PPP as 100% light transmission. PRP was allowed to rest at room temperature for 20 minutes following separation from whole blood. […] PRP was incubated at 37° C. in the aggregometer for approximately 5 minutes with the chart recorder on to establish a baseline. […] ADP (1 mM) was added to the PRP and the aggregation response (change in light transmission) recorded. An aliquot of the PRP was used to perform a platelet count on the Cell-Dyne 1500 automated hematology analyzer. [drawing 50] Example 7, Compound 1

| SMILES | peripheral blood flow, result in words [1] | further results |
| --- | --- | --- |
| N=C(N)NCCC[C@H](NC(=O)[C@@H]1CSCC(=O)N[C@H](Cc2ccc(O)cc2)C(=O)N[C@@H](CCCNC(=N)N)C(=O)NCC(=O)N[C@@H](CC(=O)O)C(=O)N1)C(N)=O [7/1, cyclo-S-acetyl-dTyr--Arg--Gly--Asp--Cys--Arg--NH2] ({CH2CO}-[dY]RGDCR-NH2; thioether N-5) | no substantial increase in cutaneous bleeding time (1.17 times; dosed to 100% inhibition of platelet aggregation) or decrease in peripheral blood flow |  |
| N=C(N)NCCC[C@@H]1NC(=O)[C@@H](Cc2ccc(O)cc2)NC(=O)CSC[C@@H](C(=O)N[C@@H](CCCCN)C(N)=O)NC(=O)[C@H](CC(=O)O)NC(=O)CNC1=O [7/3, cyclo-S-acetyl-dTyr--Arg--Gly--Asp--Cys--Lys--NH2] ({CH2CO}-[dY]RGDCK-NH2; thioether N-5) |  | inhibition of ex vivo aggregation ([2]; 300 μg/kg bolus plus an infusion of 7.2 μg/kg/min): > 95% |
| N=C(N)NCCC[C@@H]1NC(=O)[C@@H](Cc2ccc(O)cc2)NC(=O)CSC[C@@H](C(=O)N[C@@H](CCCN)C(N)=O)NC(=O)[C@H](CC(=O)O)NC(=O)CNC1=O [7/5, cyclo-S-acetyl-dTyr--Arg--Gly--Asp--Cys--Orn--NH2] ({CH2CO}-[dY]RGDC[Orn]-NH2; thioether N-5) |  | inhibition of aggregation ([2]; 200 μg/kg bolus plus an infusion of 4.8 μg/kg/min): > 90% |
| CC1(C)SCC(=O)N[C@H](Cc2ccc(O)cc2)C(=O)N[C@@H](CCCCN)C(=O)NCC(=O)N[C@@H](CC(=O)O)C(=O)N[C@@H]1C(=O)N[C@@H](CCCNC(=N)N)C(N)=O [7/16, cyclo-S-acetyl-dTyr--Lys--Gly--Asp--Pen--Arg--NH2] ({CH2CO}-[dY]KGD[Pen]R-NH2; thioether N-5) | without substantial increased cutaneous bleeding time or decreased peripheral blood flow |  |
| CC1(C)SCC(=O)N[C@H](Cc2ccc(O)cc2)C(=O)N[C@@H](CCCCN)C(=O)NCC(=O)N[C@@H](CC(=O)O)C(=O)N[C@@H]1C(=O)N[C@@H](CCCCN)C(N)=O [7/17, cyclo-S-acetyl-dTyr--Lys--Gly--Asp--Pen--Lys--NH2] ({CH2CO}-[dY]KGD[Pen]K-NH2; thioether N-5) | without substantial increased cutaneous bleeding time or decreased peripheral blood flow |  |
| N=C(N)NCCC[C@@H]1NC(=O)[C@@H](Cc2ccc(O)cc2)NC(=O)CSC[C@@H](C(=O)O)NC(=O)[C@H](CC(=O)O)NC(=O)CNC1=O [7/46, cyclo-S-acetyl-dTyr--Arg--Gly--Asp--Cys--OH] ({CH2CO}-[dY]RGDC-OH; thioether N-5) |  | inhibition of ex vivo aggregation ([2]; bolus of 125 μg/kg plus an infusion of 3 μg/kg/min, throughout the infusion period): 100% |
